# Laboratory results as given in ChEMBL document CHEMBL4673231, “Novel isoniazid embedded triazole derivatives: Synthesis, antitubercular and antimicrobial activity evaluation” (Bioorg Med Chem Lett, 2020).
# Active and inactive are the calls of the source. No cut-off for these calls is given here.
# What was measured:
# [1] = system: Staphylococcus aureus; test: Antibacterial activity against Staphylococcus aureus ATCC 6538 by CLSI method; format: functional
# [2] = system: Bacillus subtilis; test: Antibacterial activity against Bacillus subtilis assessed as diameter of inhibition zone at 1 mg/ml incubated for 24 hrs by agar well diffusion assay; format: functional; settings: for zone of inhibition at 1000 µg/mL: read-out: DIZ
# [3] = system: Salmonella typhi; test: Antibacterial activity against Salmonella typhi ATCC 9207 by CLSI method; format: functional, Salmonella enterica subsp. enterica serovar Typhi; settings: Salmonella enterica
# [4] = system: Shigella boydii; test: Antibacterial activity against Shigella boydii assessed as diameter of inhibition zone at 1 mg/ml incubated for 24 hrs by agar well diffusion assay; format: functional; settings: for zone of inhibition at 1000 µg/mL: read-out: DIZ
# [5] = system: Bacillus cereus; test: Antibacterial activity against Bacillus cereus assessed as diameter of inhibition zone at 1 mg/ml incubated for 24 hrs by agar well diffusion assay; format: functional; settings: for zone of inhibition at 1000 µg/mL: read-out: DIZ
# [6] = system: Mycobacterium tuberculosis; test: Antimycobacterial activity against Mycobacterium tuberculosis H37Rv assessed as reduction in microbial growth incubated for 7 days by alamar blue assay; format: functional; settings: 168 h, time 7 day
# [7] = system: Klebsiella aerogenes; test: Antibacterial activity against Enterobacter aerogenes ATCC 13048 by CLSI method; format: functional
# [8] = system: Pseudomonas aeruginosa; test: Antibacterial activity against Pseudomonas aeruginosa assessed as diameter of inhibition zone at 1 mg/ml incubated for 24 hrs by agar well diffusion assay; format: functional; settings: for zone of inhibition at 1000 µg/mL: read-out: DIZ
# [9] = system: Klebsiella aerogenes; test: Antibacterial activity against Enterobacter aerogenes assessed as diameter of inhibition zone at 1 mg/ml incubated for 24 hrs by agar well diffusion assay; format: functional; settings: for zone of inhibition at 1000 µg/mL: read-out: DIZ
# [10] = system: Staphylococcus aureus; test: Antibacterial activity against Staphylococcus aureus assessed as diameter of inhibition zone at 1 mg/ml incubated for 24 hrs by agar well diffusion assay; format: functional; settings: for zone of inhibition at 1000 µg/mL: read-out: DIZ
# [11] = system: Salmonella typhi; test: Antibacterial activity against Salmonella typhi assessed as diameter of inhibition zone at 1 mg/ml incubated for 24 hrs by agar well diffusion assay; format: functional, Salmonella enterica subsp. enterica serovar Typhi; settings: for zone of inhibition at 1000 µg/mL: Salmonella enterica, read-out: DIZ
# [12] = system: Escherichia coli; test: Antibacterial activity against Escherichia coli assessed as diameter of inhibition zone at 1 mg/ml incubated for 24 hrs by agar well diffusion assay; format: functional; settings: for zone of inhibition at 1000 µg/mL: read-out: DIZ
# [13] = system: Saccharomyces cerevisiae; test: Antifungal activity against Saccharomyces cerevisiae assessed as diameter of inhibition zone at 1 mg/ml incubated for 24 hrs by agar well diffusion assay; format: functional; settings: for zone of inhibition at 1000 µg/mL: read-out: DIZ
# [14] = system: Salmonella enterica subsp. enterica serovar Abony; test: Antibacterial activity against Salmonella enterica subsp. enterica serovar Abony assessed as diameter of inhibition zone at 1 mg/ml incubated for 24 hrs by agar well diffusion assay; format: functional; settings: for zone of inhibition at 1000 µg/mL: read-out: DIZ
# [15] = system: Aspergillus niger; test: Antifungal activity against Aspergillus niger assessed as diameter of inhibition zone at 1 mg/ml incubated for 24 hrs by agar well diffusion assay; format: functional; settings: read-out: DIZ
# [16] = Cytotoxicity against mouse RAW264.7 cells assessed as reduction in cell viability at 25 ug/ml incubated for 48 hrs by MTT assay; format: cell-based; settings: at 25 µg/mL, read-out: INH
SMILES,MIC [1],zone of inhibition at 1000 µg/mL [2],MIC [3],zone of inhibition at 1000 µg/mL [4],zone of inhibition at 1000 µg/mL [5],MIC [6],MIC [7],zone of inhibition at 1000 µg/mL [8],zone of inhibition at 1000 µg/mL [9],zone of inhibition at 1000 µg/mL [10],zone of inhibition at 1000 µg/mL [11],zone of inhibition at 1000 µg/mL [12],zone of inhibition at 1000 µg/mL [13],zone of inhibition at 1000 µg/mL [14],zone of inhibition at 1000 µg/mL [15],"cytotoxicity at 48 h, 25 ug/ml [16]",further results
COc1ccccc1-n1cc(COc2ccc([N+](=O)[O-])cc2/C=N/NC(=O)c2ccncc2)nn1,450 µg/mL,12 mm,230 µg/mL,13 mm,12 mm,> 25 µg/mL,370 µg/mL,8 mm,12 mm,12 mm,11 mm,11 mm,10 mm,8 mm,10 mm,–,–
Cc1ccccc1-n1cc(COc2ccc([N+](=O)[O-])cc2/C=N/NC(=O)c2ccncc2)nn1,310 µg/mL,11 mm,270 µg/mL,14 mm,12 mm,1.56 µg/mL,190 µg/mL,10 mm,10 mm,13 mm,11 mm,–,12 mm,12 mm,9 mm,24.2%,diameter of the inhibition zone (DIZ) [12]: inactive
O=C(N/N=C/c1cc([N+](=O)[O-])ccc1OCc1cn(-c2cccc(Cl)c2)nn1)c1ccncc1,220 µg/mL,11 mm,140 µg/mL,12 mm,10 mm,12.5 µg/mL,260 µg/mL,8 mm,13 mm,15 mm,–,10 mm,10 mm,10 mm,9 mm,20.1%,–
O=C(N/N=C/c1cc([N+](=O)[O-])ccc1OCc1cn(-c2ccccc2Cl)nn1)c1ccncc1,200 µg/mL,9 mm,170 µg/mL,7 mm,11 mm,1.56 µg/mL,130 µg/mL,–,10 mm,12 mm,10 mm,12 mm,12 mm,–,10 mm,24.2%,diameter of the inhibition zone (DIZ) [8]: inactive; diameter of the inhibition zone (DIZ) [14]: inactive
CN(C)[C@@H]1C(O)=C(C(N)=O)C(=O)[C@@]2(O)C(O)=C3C(=O)c4c(O)cccc4[C@@](C)(O)[C@H]3C[C@@H]12 [TETRACYCLINE],20 µg/mL,18 mm,20 µg/mL,29 mm,32 mm,–,15 µg/mL,28 mm,24 mm,22 mm,28 mm,29 mm,–,27 mm,–,–,–
COc1ccc(-n2cc(COc3ccc([N+](=O)[O-])cc3/C=N/NC(=O)c3ccncc3)nn2)cc1,180 µg/mL,6 mm,340 µg/mL,14 mm,12 mm,> 25 µg/mL,150 µg/mL,12 mm,14 mm,10 mm,12 mm,12 mm,–,13 mm,11 mm,–,–
CCc1ccc(-n2cc(COc3ccc([N+](=O)[O-])cc3/C=N/NC(=O)c3ccncc3)nn2)cc1,–,–,–,–,–,0.78 µg/mL,–,10 mm,–,–,–,10 mm,–,–,10 mm,26.9%,diameter of the inhibition zone (DIZ) [2]: inactive; diameter of the inhibition zone (DIZ) [4]: inactive; diameter of the inhibition zone (DIZ) [5]: inactive; diameter of the inhibition zone (DIZ) [9]: inactive; diameter of the inhibition zone (DIZ) [10]: inactive; diameter of the inhibition zone (DIZ) ([11]; Salmonella enterica subsp. enterica serovar Typhi): inactive; diameter of the inhibition zone (DIZ) [13]: inactive; diameter of the inhibition zone (DIZ) [14]: inactive
